According to PubChem BioAssay (NCI):
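Cultured in 96-well plates, cells were exposed to test compound for 48 hours across five concentrations. The concentration for full growth arrest is given as TGI.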

Legend:
Experiment in all cases: DTP human tumour cell line panel, 48 h
SNB-19 CNS = tested on: SNB-19 CNS
CAKI-1 renal = tested on: CAKI-1 renal
BT-549 breast = tested on: BT-549 breast
A549 NSCLC = tested on: A549 NSCLC
SR leukemia = tested on: SR leukemia
T-47D breast = tested on: T-47D breast
A498 renal = tested on: A498 renal
ACHN renal = tested on: ACHN renal
SW-620 colon = tested on: SW-620 colon
NCI-H226 lung = tested on: NCI-H226 lung
HT29 colon = tested on: HT29 colon
786-0 renal = tested on: 786-0 renal
HCT-15 colon = tested on: HCT-15 colon
MOLT-4 leukemia = tested on: MOLT-4 leukemia
SK-MEL-5 melanoma = tested on: SK-MEL-5 melanoma
HOP-62 NSCLC = tested on: HOP-62 NSCLC
SN12C renal = tested on: SN12C renal
NCI-H522 lung = tested on: NCI-H522 lung
MDA-N = tested on: MDA-N
M14 melanoma = tested on: M14 melanoma
K-562 leukemia = tested on: K-562 leukemia
HCC-2998 colon = tested on: HCC-2998 colon
HOP-92 NSCLC = tested on: HOP-92 NSCLC
OVCAR-4 ovarian = tested on: OVCAR-4 ovarian
MDA-MB-231 breast = tested on: MDA-MB-231 breast
NCI-H460 lung = tested on: NCI-H460 lung
TK-10 renal = tested on: TK-10 renal
UO-31 renal = tested on: UO-31 renal
SNB-75 CNS = tested on: SNB-75 CNS
SF-295 CNS = tested on: SF-295 CNS
EKVX NSCLC = tested on: EKVX NSCLC
DU-145 prostate = tested on: DU-145 prostate
HS 578T breast = tested on: HS 578T breast
SK-OV-3 ovarian = tested on: SK-OV-3 ovarian
CCRF-CEM leukemia = tested on: CCRF-CEM leukemia
LOX IMVI melanoma = tested on: LOX IMVI melanoma
U251 CNS = tested on: U251 CNS
UACC-257 melanoma = tested on: UACC-257 melanoma
RPMI-8226 leukemia = tested on: RPMI-8226 leukemia
SF-539 CNS = tested on: SF-539 CNS
HL-60(TB) leukemia = tested on: HL-60(TB) leukemia
SF-268 CNS = tested on: SF-268 CNS
IGROV1 ovarian = tested on: IGROV1 ovarian
SK-MEL-28 melanoma = tested on: SK-MEL-28 melanoma
MDA-MB-435 = tested on: MDA-MB-435
COLO 205 colon = tested on: COLO 205 colon
PC-3 prostate = tested on: PC-3 prostate
OVCAR-5 ovarian = tested on: OVCAR-5 ovarian
MCF7 breast = tested on: MCF7 breast
UACC-62 melanoma = tested on: UACC-62 melanoma
OVCAR-3 ovarian = tested on: OVCAR-3 ovarian
NCI/ADR-RES ovarian = tested on: NCI/ADR-RES ovarian
SK-MEL-2 melanoma = tested on: SK-MEL-2 melanoma
HCT-116 colon = tested on: HCT-116 colon
KM12 colon = tested on: KM12 colon
NCI-H23 lung = tested on: NCI-H23 lung
MALME-3M melanoma = tested on: MALME-3M melanoma
OVCAR-8 ovarian = tested on: OVCAR-8 ovarian

With `Cc1cc(C)n(-c2nc3ccccc3c(=O)[nH]2)n1` the TGI (SNB-19 CNS) was > 72.1 µM, the TGI (CAKI-1 renal) was 37.5 µM and the TGI (BT-549 breast) was > 100 µM. The TGI (A549 NSCLC) was > 35.5 µM, the TGI (SR leukemia) was > 29.5 µM and the TGI (T-47D breast) was 48.8 µM. The TGI (A498 renal) was > 63.8 µM, the TGI (ACHN renal) was 21.8 µM and the TGI (SW-620 colon) was 38.9 µM. For the same compound, the TGI (NCI-H226 lung) was > 66.8 µM, the TGI (HT29 colon) was > 100 µM and the TGI (786-0 renal) was 19.6 µM. The TGI (HCT-15 colon) was 23.9 µM, the TGI (MOLT-4 leukemia) was 50.5 µM and the TGI (SK-MEL-5 melanoma) was 17.8 µM. For the same compound, the TGI (HOP-62 NSCLC) was > 43.7 µM, the TGI (SN12C renal) was > 100 µM and the TGI (NCI-H522 lung) was 18.8 µM. For the same compound, the TGI (MDA-N) was > 76.9 µM, the TGI (M14 melanoma) was > 100 µM and the TGI (K-562 leukemia) was > 100 µM. The TGI (HCC-2998 colon) was 31.3 µM, the TGI (HOP-92 NSCLC) was > 68.3 µM and the TGI (OVCAR-4 ovarian) was > 100 µM. For the same compound, the TGI (MDA-MB-231 breast) was 25.3 µM, the TGI (NCI-H460 lung) was > 49.3 µM and the TGI (TK-10 renal) was > 100 µM. The TGI (UO-31 renal) was 36.8 µM, the TGI (SNB-75 CNS) was > 71.6 µM and the TGI (SF-295 CNS) was > 50.7 µM. The TGI (EKVX NSCLC) was 28.9 µM, the TGI (DU-145 prostate) was 21.3 µM and the TGI (HS 578T breast) was > 91.5 µM. The TGI (SK-OV-3 ovarian) was > 100 µM, the TGI (CCRF-CEM leukemia) was > 100 µM and the TGI (LOX IMVI melanoma) was 13.7 µM. For the same compound, the TGI (U251 CNS) was > 45.5 µM, the TGI (UACC-257 melanoma) was > 100 µM and the TGI (RPMI-8226 leukemia) was > 41.9 µM. For the same compound, the TGI (SF-539 CNS) was > 75 µM, the TGI (HL-60(TB) leukemia) was > 33.7 µM and the TGI (SF-268 CNS) was > 47.1 µM. The TGI (IGROV1 ovarian) was 12.4 µM, the TGI (SK-MEL-28 melanoma) was > 41.2 µM and the TGI (MDA-MB-435) was 26.9 µM. The TGI (COLO 205 colon) was 17.1 µM, the TGI (PC-3 prostate) was 25.8 µM and the TGI (OVCAR-5 ovarian) was > 100 µM. For the same compound, the TGI (MCF7 breast) was > 100 µM, the TGI (UACC-62 melanoma) was 21.3 µM and the TGI (OVCAR-3 ovarian) was > 45 µM. For the same compound, the TGI (NCI/ADR-RES ovarian) was 13.9 µM, the TGI (SK-MEL-2 melanoma) was 32.2 µM and the TGI (HCT-116 colon) was 21.6 µM. It also gave a TGI (KM12 colon) of 23.1 µM and a TGI (NCI-H23 lung) of 32.8 µM.
With `CCN1CC2(COC)C(O)CC(OC)C34C5CC6(O)C(OC)C=C(C5C6OC(=O)c5ccc(OC)c(OC)c5)C(C(OC)C23)C14` (stereo not given) the TGI (SNB-19 CNS) was > 7.5 µM, the TGI (CAKI-1 renal) was > 7.5 µM and the TGI (BT-549 breast) was > 7.5 µM. For the same compound, the TGI (A549 NSCLC) was > 7.5 µM, the TGI (SR leukemia) was > 7.5 µM and the TGI (T-47D breast) was > 7.5 µM. The TGI (MALME-3M melanoma) was > 7.5 µM, the TGI (A498 renal) was > 7.5 µM and the TGI (ACHN renal) was > 7.5 µM. For the same compound, the TGI (SW-620 colon) was > 7.5 µM, the TGI (NCI-H226 lung) was > 7.5 µM and the TGI (HT29 colon) was > 7.5 µM. The TGI (786-0 renal) was > 7.5 µM, the TGI (HCT-15 colon) was > 7.5 µM and the TGI (SK-MEL-5 melanoma) was > 7.5 µM. The TGI (SN12C renal) was > 7.5 µM, the TGI (NCI-H522 lung) was > 7.5 µM and the TGI (MDA-N) was > 7.5 µM. For the same compound, the TGI (M14 melanoma) was > 7.5 µM, the TGI (K-562 leukemia) was > 7.5 µM and the TGI (HCC-2998 colon) was > 7.5 µM. The TGI (HOP-92 NSCLC) was > 7.5 µM, the TGI (OVCAR-4 ovarian) was > 7.5 µM and the TGI (MDA-MB-231 breast) was > 7.5 µM. The TGI (NCI-H460 lung) was > 7.5 µM, the TGI (TK-10 renal) was > 7.5 µM and the TGI (UO-31 renal) was > 7.5 µM. The TGI (SNB-75 CNS) was > 7.5 µM, the TGI (SF-295 CNS) was > 7.5 µM and the TGI (EKVX NSCLC) was > 7.5 µM. For the same compound, the TGI (DU-145 prostate) was > 7.5 µM, the TGI (HS 578T breast) was > 7.5 µM and the TGI (SK-OV-3 ovarian) was > 7.5 µM. The TGI (CCRF-CEM leukemia) was > 7.5 µM, the TGI (LOX IMVI melanoma) was > 7.5 µM and the TGI (U251 CNS) was > 7.5 µM. For the same compound, the TGI (UACC-257 melanoma) was > 7.5 µM, the TGI (SF-539 CNS) was > 7.5 µM and the TGI (HL-60(TB) leukemia) was > 7.5 µM. The TGI (SF-268 CNS) was > 7.5 µM, the TGI (OVCAR-8 ovarian) was > 7.5 µM and the TGI (IGROV1 ovarian) was > 7.5 µM. The TGI (SK-MEL-28 melanoma) was > 7.5 µM, the TGI (MDA-MB-435) was > 7.5 µM and the TGI (COLO 205 colon) was > 7.5 µM. For the same compound, the TGI (PC-3 prostate) was > 7.5 µM, the TGI (OVCAR-5 ovarian) was > 7.5 µM and the TGI (MCF7 breast) was > 7.5 µM. For the same compound, the TGI (UACC-62 melanoma) was > 7.5 µM, the TGI (NCI/ADR-RES ovarian) was > 7.5 µM and the TGI (SK-MEL-2 melanoma) was > 7.5 µM. For the same compound, the TGI (HCT-116 colon) was > 7.5 µM, the TGI (KM12 colon) was > 7.5 µM and the TGI (NCI-H23 lung) was > 7.5 µM.
